Reference: patent US20150216136A1, “PLANT REGENERATION FROM PROTOPLASTS DERIVED FROM ELAEIS sp SUSPENSION CULTURES” (MALAYSIAN PALM OIL BOARD, priority 2012, published 2015)

How the values were obtained:
Assay type in all cases: cell-based, Elaeis guineensis
oil palm protoplasts [1] = assay: Plant growth regulators (PGRs) optimization on agarose solidified cultures; conditions: within PGR combinations, Y3A or Y3D media
Procedure: The PGRs optimization was performed on agarose solidified cultures. All PGRs used were prepared at the concentration of 1 μM/μl and the pH was adjusted to 5.7. The filter-sterilized PGRs were added in 24 wells culture plate at different combinations and concentration as indicated in Table 3.
Protoplast division frequency was calculated by counting the number of protoplasts divided by the total number of protoplasts in one representative microscope field. Three microscopic fields were averaged to represent one experiment in which the experiment was performed in 3 replicates to give an average range of protoplast division frequency. A similar calculation procedure was used for microcolonies and microcalli formation frequencies.

microcalli = assay: Control of callus browning in agarose bead culture; conditions: additive in Y35N5D2iP liquid media surrounding agarose beads; AA 200 mg/l
Procedure: The mixture of protoplasts and agarose was prepared by using the same procedure for preparation of agarose solidified cultures with the exception that the protoplast pellet was resuspended in […] liquid media supplemented with the optimum PGRs and 0.6% w/v agarose sea plaque. Agarose beads were prepared by dropping 200 μl of the mixture into a 60 mm×15 mm petri dish. After agarose solidification, 10 ml of 21% v/v osmoticum solution was added to Petri dish and incubated at 28° C. in the dark for 3-5 days. Three types of osmoticum solutions were used: sucrose, glucose and mannitol. Each was dissolved in water, adjusting the pH to 5.7 and then filter-sterilized. The osmoticum solution was replaced with different liquid media in shaking condition at 50 rpm by refreshing the media at 14-day intervals. When the formation of microcolonies was observed, […] liquid media was changed to Y3 liquid media and the agarose beads were cultured until the microcalli were detected. […] The cultures were continued until the microcalli growth to embryogenic calli.

oil palm protoplasts [2] = assay: DNA microinjection mediated transformation of alginate layer-embedded protoplasts; conditions: in injected protoplasts at 28° C.
Procedure: Protoplasts were isolated from a 7 day subculture of a 3 month old embryogenic suspension culture as described above. After twice repeating the washing step, the supernatant was mostly removed leaving 3 ml Washing solution. The centrifuge tube containing the protoplast suspension was incubated in a vertical position in the dark for 24 hours at 28° C. After incubation, the protoplast suspension was diluted by 10 ml of Rinse solution and resuspended by inverting the centrifuge tube for 3-5 times, and then centrifuged at 60×g for 5 minutes at 22° C. After repeating the rinsing step, the supernatant was removed completely and the protoplast pellet was embedded with 3 ml filter-sterilized ([…]) alginate solution consisted of 1% w/v alginic acid sodium salt (A2158, Sigma) dissolved in Y3A liquid media (5.5% w/v sucrose and 11.9% w/v glucose supplemented with 10 μM NAA, 2 μM 2.4-D, 2 μM IBA, 2 μM GA3, 2 μM 2iP and 200 mg/L ascorbic acid) adjusted to pH 5.6, in which the Y3 macroelements was prepared without calcium chloride (CaCl2.2H2O).
Alginate-embedded protoplasts were distributed as a thin layer onto supporting media comprising, 1.5 mL filter-sterilized Y3A (5.5% w/v sucrose and 11.9% w/v glucose supplemented with 0.1% w/v CaCl2.2H2O) solidified with 1% w/v agarose sea plaque, in 35 mm×10 mm petri dish (no. 627161, Greiner Bio-One, Germany). […]

Compound	Cell division at concentration higher than 7 μM (oil palm protoplasts [1])	also measured
CC(C)=CCNc1ncnc2nc[nH]c12 [2iP, 2-γ-Dimethylallylaminopurine]	inhibited cell division	
O=C(O)COc1ccc(Cl)cc1Cl [2,4-D, 2,4-Dichlorophenoxyacetic acid]	inhibited cell division	
C=C1C[C@]23C[C@@]1(O)CC[C@H]2[C@@]12C=C[C@H](O)[C@@](C)(C(=O)O1)[C@H]2[C@@H]3C(=O)O [GA3, Gibberellic acid A3]	inhibited cell division	
O=[N+]([O-])[O-].[Ag+] [AgNO3, Silver nitrate]		Microcalli browning / development of embryogenic callus (microcalli): did not solve the problem of browning
O=C1O[C@H]([C@@H](O)CO)C(O)=C1O [AA, Ascorbic acid]		Microcalli browning / development of embryogenic callus (microcalli): developed embryogenic callus
Lucifer Yellow CH dilithium salt		Time the fluorescence property is maintained (oil palm protoplasts [2]): 48 h
O=C(O)CCCc1c[nH]c2ccccc12 [IBA, Indole-3-butyric acid]	inhibited cell division	
